Experiment [1] concerns SOST^ki.ApoE^−/− mice. The experiment can be described thus: Aortic aneurysm, atherosclerosis and inflammatory responses in SOST^ki.ApoE^−/− mice with AngII infusion. Type of experiment: in vivo, mouse. The note with it: 10 mg/kg/day subcutaneous, four weeks, versus veh and Rseq‐Pep groups, n = 12. Here is the method: (§1) Aortic aneurysm (AA), atherosclerosis, and inflammatory responses were induced in ApoE^−/− mice with AngII infusion as previously described.^[ [15] ^] In brief, osmotic minipumps (Model 1004, ALZET, Durect Corporation) were implanted into the subcutaneous space along the dorsal midline under anaesthesia on the right flank via an incision in the scapular region to deliver 1000 ng/kg/min of AngII (A9525, Sigma‐Aldrich) or vehicle in 3‐month‐old mice for four weeks.^[ [68] ^]
For AA evaluation, the aortas were perfused via the left ventricle with ice‐cold EDTA buffer (1 mM) and saline immediately after sacrifice. The aortas were then isolated from the fat and connective tissues under a Zeiss Stemi 305 stereomicroscope and then fixed in 4% PFA. The aorta with or without aneurysm formation was defined according to Daugherty's modified classification.^[ [45] ^] The incidence of AA was determined as follows: mouse number with aortic aneurysm/group mice*100%. The maximum ex vivo diameters of the aortic arch and suprarenal aorta were determined by ImageJ software. For atherosclerosis assessment, atherosclerotic plaque was quantified by measuring the surface area of the Oil Red O‐positive lesions on en face preparation of aortic arches.^[ [14] ^] Briefly, aortic arches were cut longitudinally and immersed in Oil Red O dye solution, followed by being rinsed with 75% ethanol. The ratio of atherosclerotic plaque area to total aortic arch area was quantified by colorimetric analysis using Image J software.^[ [13] ^]
(§2) The serum levels of sclerostin were detected using the sclerostin ELISA kits (R&D, DSST00; Cloud‐Clone, SEC864Mu) in triplicate following the manufacturer's instructions.^[ [14] ^] The serum levels of pro‐inflammatory cytokine and chemokine were measured using TNF‐α ELISA kit (Thermo Fisher BMS607‐3) and MCP‐1 ELISA kit (Thermo Fisher, BMS6005) in triplicate following manufacturer's instructions.^[ [15], [45] ^] The serum levels of anti‐inflammatory cytokine were measured using IL‐10 ELISA kit (Jonlnbio JL20242‐96T) in triplicate following manufacturer's instructions.^[ [15], [45] ^]

The subject of experiment [2] is sclerostin loop2‐ApoER2 interaction. In words: BLI blockade of ApoER2 - sclerostin loop2 binding by pretreatment with ApoER2‐Pep. The note with it: His‐ApoER2 on HIS1K biosensors, sclerostin loop2 pretreated with ApoER2‐Pep, Figure 6F, listed as ApoER2‐LA7. Here is the method:
Biolayer interferometry (BLI) analysis was performed on the Biomolecular Interaction Analyzer (ForteBio, Octet RED96e). To determine the binding affinity between ApoER2 and sclerostin, the ApoER2 protein (R&D, 3520‐AR) was biotinylated using 10 mM EZ‐Link Sulfo‐NHS‐LC‐LC‐Biotin (Thermo Scientific, 21 343) in a molar ratio of 1:20 for 2 h at 4 °C. The Slide‐A‐Lyzer Dialysis Cassettes (Thermo Scientific, 66 382) were used for excess biotin removal.^[ [61] ^] […] (SA) tray biosensors (Sartorius, 18‐5019) were used to load biotin‐ApoER2 proteins. Biosensors were pre‐wet for 10 min using 200 µL PBS containing 0.02% Tween 20 (v/v) in a 96‐well plate. To determine the binding affinity between sclerostin loop2 and ApoER2‐LA7, anti‐penta‐HIS (HIS1K) biosensors (Sartorius, 18‐5102) were used to load His‐sclerostin loop2, the sclerostin loop2‐loaded biosensors were immersed in the ApoER2‐LA7 with different concentrations. […] Raw data were analyzed using Data Analysis Software (ForteBio, v8.1). All Kd values were calculated after deducting the non‐specific binding between the biosensors and the samples.^[ [62], [63] ^]
Target sequence in this assay (Q99P68 107-132 limits assumed): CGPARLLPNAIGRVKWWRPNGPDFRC

The subject of experiment [3] is sost^−/−.ApoE^−/− mice. In words: Inflammatory responses in sost^−/−.ApoE^−/− mice with AngII infusion (absence of sclerostin). Type of experiment: in vivo, mouse. The note with it: 10 mg/kg, n = 6, Figure S12F. Here is the method:
as §1, §2
Figure S12. […] (A) Serum stability of the modified ApoER2-Pep. […] All tests were two-sided. n = 6 per group. Data were expressed as mean ± standard deviation.

In experiment [4] the test system is sclerostin loop2‐ApoER2 interaction. The experiment can be described thus: ApoER2‐Pep blockade of sclerostin effects in ApoER2 overexpressing, LPS‐induced RAW 264.7 macrophages. Type of experiment: cell-based, mouse. Here is the method:
In ApoER2‐Pep‐mediated structure‐function studies in vitro, RAW 264.7 cells were divided into 4 groups (n = 3 per group), including (1) Control, (2) LPS, (3) Lrp8 + LPS + SOST, and (4) Lrp8 + LPS + SOST + ApoER2‐Pep. Cells in groups (3) and (4) were transfected with Lrp8 plasmids encoding ApoER2, while cells in groups (1) and (2) were kept untreated. 24 h later, cells in group (3) were treated with recombinant sclerostin (SOST, 1 µM), while cells in group (4) were treated with recombinant sclerostin (1 µM) and ApoER2‐Pep (2 µM) for 3 h. Then, cells in groups (2), (3), and (4) were treated with LPS (1 µg/mL) for 18 h. All groups of cells were collected for determining the mRNA expression levels of TNF‐α, MCP‐1, and IL‐10 by RT‐PCR. Cell mediums were collected for determining the protein expression/secretion levels of mouse TNF‐α, mouse MCP‐1, and mouse IL‐10 by ELISA.
Total RNA was extracted from cells following the protocols of Trizol reagent (Invitrogen, 15 596 026). Reverse‐transcription was performed to obtain cDNA using HiScript III RT SuperMix kit (Vazyme, R323), and RT‐PCR was accomplished using a HiScript III RT SuperMix kit (Vazyme, R323) in a QuantStudio 7 PRO System (Applied Biosystems). The relative gene expression levels were calculated using the 2^−ΔΔCt method with GAPDH as the reference gene.^[ [40] ^] The primers were as follows: mouse GAPDH (F: […], R: GGGGTCGTTGATGGCAAC), mouse NF‐κB (p65, F: […], R: […]), mouse TNF‐α (F: […], R: […]), mouse MCP‐1 (F: […], R: […]), mouse IL‐10 (F: […], R: […]), human GAPDH (F: […], R: […]), human TNF‐α (F: […], R: […]), human MCP‐1 (F: […], R: […]) and human IL‐10 (F: […], R: […]).

Experiment [5] deals with sclerostin‐knockout macrophages (RAW264.7). In words: Effect of ApoER2‐LA7 on LPS‐induced cytokine mRNA in sclerostin‐knockout macrophages (RAW264.7). The experiment is classed as cell-based, mouse. Conditions: sclerostin‐knockout RAW264.7, after LPS induction, n = 3; Figure S7C.
Setting [6] is: LPS‐induced macrophages in vitro.

Take “PCRENEFQCGDGTCVLAIKRCNQERDCPDGSDEAGCL [ApoER2‐Pep]”: in experiment [1] (ELISA), the “Serum level of IL‐10” value was “significantly lower”, the “Serum level of MCP‐1” value is given as “significantly higher” and the “Serum level of TNF‐α” value was “significantly higher”. In experiment [1], the AA incidence entry was “significantly higher”; the “Maximum ex vivo diameters of aortic arches and suprarenal aortas” value is “significantly higher”; the “Ratio of atherosclerotic plaque in aortic arches” value is listed as “significantly higher”. Further, the “Binding of ApoER2 to sclerostin loop2 after pretreatment with the peptide” value in experiment [2] is given as “blocked”. For the same sequence, the “Effect on inflammatory responses (serum TNF‐α, MCP‐1, IL‐10) in the absence of sclerostin” value in experiment [3] is given as “no effect”. In addition, the “Effects of exogenous sclerostin on protein expression/secretion of TNF‐α, MCP‐1 and IL‐10 after pretreatment with the peptide” value in experiment [4] (ApoER2‐Pep 2 µM + sclerostin 1 µM for 3 h, LPS 1 µg/mL 18 h, ELISA, n = 3) is on record as “significantly attenuated”. Besides, the “Effects of exogenous sclerostin on mRNA expression of TNF‐α, MCP‐1 and IL‐10 after pretreatment with the peptide” value in experiment [4] (ApoER2‐Pep 2 µM + sclerostin 1 µM for 3 h, LPS 1 µg/mL 18 h, RT‐PCR, n = 3) is “significantly attenuated”. Further, in experiment [4] (setting [6]), the “Reversal of the promotive effect of sclerostin on IL‐10 mRNA expression” value is listed as “complete reversal”, the “Reversal of the suppressive effect of sclerostin on MCP‐1 mRNA expression” value is listed as “complete reversal” and the “Reversal of the suppressive effect of sclerostin on TNF‐α mRNA expression” value is reported as “partial reversal”. Moreover, the “mRNA expression levels of TNF‐α, MCP‐1 and IL‐10, with versus without the peptide” value in experiment [5] is on record as “no significant differences”.
